# Data published in US8455460B2, “Cosmetic composition containing one or more compounds of the β-(1,3)-glucuronan or β-(1,3)-glucoglucuronan type” (Greentech, priority 2007, dated 2013).
# Key:
# [1] = clinical study on human volunteers, daily topical application of cream (cellulite, orange-peel skin); format: in vivo; details: cream containing 3%, daily topical application for 30 days, placebo 27%
# Description: The orange-peel skin effect is reduced in 53% of the volunteers (against 27% in the group of volunteers treated with a placebo).
# human fibroblasts = assay: transcriptomic study on human fibroblasts cultivated in vitro in the absence or presence of the compounds; format: cell-based; details: cellular renewal
# Description: The biological activities of β-(1,3)-glucuronan compounds or of a mixture of β-(1,3)-glucoglucuronan compounds were screened by an original method of molecular biology (transcriptomic technique) and then detected by methodologies used conventionally in cosmetology.
# This adipokine produced locally in the adipose tissue inhibits the activity of the enzyme lipoprotein lipase (LPL) thus preventing the transfer of fatty acids from the lipoproteins to the adipocytes, thus greatly reducing lipogenesis. At the same time, this adipokine activates the enzyme ATGL (adipose triglyceride lipase), present in the adipocytes, thus greatly increasing lipolysis and the release of fatty acids from the adipocytes.
# In fact, the transitory induction (under the control of TFPI2 and of PDGFD) of the metalloproteinases (MMP) and the transitory inhibition (under the control of TFPI2) of HAPLN1, permit transitory, localized destabilization of the stressed site (requiring cicatrization) of the extracellular matrix, mainly by catabolic action on the collagen fibers. […]
# [2] = chelation and sequestration of cationic ions, investigated by atomic absorption; format: physicochemical; details: Na+, Cu+, Cu2+, Ca2+, Mg2+, Zn2+, with stirring, compounds recovered and washed
# Description: The β-(1,3)-glucuronan compounds or the mixture of β-(1,3)-glucoglucuronan compounds are polyanionic molecules capable of chelating and of sequestering mono- and divalent cationic ions.
# adipocytes = assay: in-vitro study on adipocytes: density of fatty acids stored as triglycerides in the lipid vacuoles; format: cell-based; details: concentration of 0.5%
substance,measurement,setting,value
"β-(1,3)-D-polyglucuronic acid [β-(1,3)-glucuronan compound]",volunteers in whom the orange-peel skin effect is reduced,[1],53%
same,expression of TFPI2,human fibroblasts,overexpressed
same,"expression of the genes EGR1, PTGS2, PDGFD, NPTX1",human fibroblasts,overexpression
same,chelating and sequestering of mono- and divalent cationic ions,[2],chelate and sequester
same,decrease in the density of fatty acids stored in the form of triglycerides in the lipid vacuoles of the adipocytes,adipocytes,~25%
